Counter-ions that a name gives are not always drawn.
How the values were obtained:
[1] = test system: 3′ UTR of the TNFα gene; test: cell-based luciferase reporter assay, 5B cell line (luciferase gene with entire 3′ UTR of the TNFα gene); set-up: species or system mouse
[2] = test system: control cell line 3B (Raw 264.7, CMV-luciferase); test: luciferase reporter assay, control 3B cell line (luciferase without 3′ UTR of TNFα); type: cell-based, mouse
Description: The candidate compounds were tested in a high-throughput, cell-based luciferase reporter assay. For this assay, a commercially available mouse macrophage Raw 264.7 cell line was stably transfected with a construct containing the CMV promoter operably linked to the luciferase gene which was modified using standard molecular biology techniques to contain the entire 3′ UTR of the TNFα gene. This 3′ UTR is important for the stability and translation of TNFα in cells. To control for effects of candidate compounds that are not specific for TNFα, a control cell line, called “3B,” was generated by stably transfecting the 264.7 cell line with a commercially available construct containing the luciferase gene (without the addition of the heterologous 3′ UTR of the TNFα gene) under the regulation of the CMV promoter.
Both the 3B and 5B cell lines were incubated in the presence of 10 μM of a candidate compound for one hour. Then, lipopolysaccharide (LPS) was added to stimulate TNFα secretion. Luciferase activity was measured by determining the luminescence intensity due to the reaction of lucifern, ATP, Mg^2+, and molecular O2 (see, for example, Ausubel et al., supra). The luciferase activity in a cell incubated with a candidate compound was reported as a percentage of the luciferase activity for the corresponding cell incubated with DMSO vehicle only. […]

[3] = test system: TNFα; test: ELISA of TNFα secreted into the media after LPS; type: cell-based; details: after LPS stimulation
Outline: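 Candidate compounds were tested directly for their ability to lower the amount of TNFα that cells secrete. A standard ELISA quantified TNFα released into the culture media. Each compound's effect is given as a percentage of the TNFα secreted by control cells that received only DMSO vehicle.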

Q: Which results are given for `C/C(=N\NC(=N)N)c1ccc(C(=O)N[C@@H](Cc2ccccc2)C(=O)NCCNC(=O)[C@H](Cc2ccccc2)NC(=O)c2ccc(/C(C)=N/NC(=N)N)cc2)cc1` [MES 10094, (E,E)-Bisguanylhydrazone of 1-[(S)-N-(4-Acetylbenzoyl)-2-amino-3-phenylpro-panoyl]-4-[(S)-N-(4-acetylbenzoyl)-2-amino-3-phenylpropanoyl]-1,4-diaza-butane bis hydrochloride]?
A: effect on luciferase activity in the 5B cell line (luciferase assay), in words [1]: strongly inhibited; effect on luciferase activity in the 3B control cell line, in words [2]: only weakly inhibited; effect on amount of secreted TNFα (direct TNFα secretion assay), in words [3]: inhibited TNFα secretion

Reference: patent US6872850B2, “Small molecule inhibitors of secretion of proteins encoded by ARE-mRNAs” (Message Pharmaceuticals, priority 2001, dated 2005)
